Measurements reported in patent US9822114B2, “Tricyclic oxazolidinone antibiotic compounds” (Idorsia Pharmaceuticals Ltd, priority 2008, dated 2017).
≈ marks a conversion by molar mass, not a printed value.

Tested on: M. catarrhalis A894
Assay: Minimal inhibitory concentration (MIC), microdilution method in cation-adjusted Mueller-Hinton Broth (CLSI M7-A7)
Format: cell-based
Settings: strain A894; for MIC: Moraxella catarrhalis
Method: Minimal inhibitory concentrations (MICs; mg/1) were determined in cation-adjusted Mueller-Hinton Broth by a microdilution method following the description given in “Methods for Dilution Antimicrobial Susceptibility Tests for Bacteria that Grow Aerobically”, Approved standard, 7th ed., Clinical and Laboratory Standards Institute (CLSI) Document M7-A7, Wayne, Pa., USA, 2006.

Row | Compound | MIC [mg/L] | MIC for M. catarrhalis A894 [mg/L]
1 | O=C1CSc2ccc(N3C[C@H](CCNC[C@@H]4Cn5c(=O)ccc6ccc(F)c4c65)OC3=O)cc2N1 [Example 50, (R)-9-fluoro-1-({2-[(S)-2-oxo-3-(3-oxo-3,4-dihydro-2H-benzo[1,4]thiazin-6-yl)-oxazolidin-5-yl]-ethylamino}-methyl)-1,2-dihydro-pyrrolo[3,2,1-ij]quinolin-4-one] | ≤ 0.031 | 
2 | O=C1COc2ccc(N3C[C@@H](CNCCC4CN5C(=O)CCc6ccc(F)c4c65)OC3=O)cc2N1 (mixture of isomers) [Example 25, (1RS)-9-fluoro-1-(2-{[(R)-2-oxo-3-(3-oxo-3,4-dihydro-2H-benzo[1,4]oxazin-6-yl)-oxazolidin-5-ylmethyl]-amino}-ethyl)-1,2,5,6-tetrahydro-pyrrolo[3,2,1-ij]quinolin-4-one] | ≤ 0.031 | 
3 | O=C1CSc2ccc(N3C[C@H](CNCC4Cn5c(=O)ccc6ncc(F)c4c65)OC3=O)cc2N1 (mixture of isomers) [Example 101, (RS)-3-fluoro-4-({[(S)-2-oxo-3-(3-oxo-3,4-dihydro-2H-benzo[1,4]thiazin-6-yl)-oxazolidin-5-ylmethyl]-amino}-methyl)-4,5-dihydro-pyrrolo[3,2,1-de][1,5]naphthyridin-7-one] | ≤ 0.031 | 
4 | O=C1CSc2ccc(N3C[C@@H](CCCN(CCO)C4Cn5c(=O)ccc6ccc(F)c4c65)OC3=O)cc2N1 (mixture of isomers) [Example 93, (RS)-9-fluoro-1-((2-hydroxy-ethyl)-{3-[(R)-2-oxo-3-(3-oxo-3,4-dihydro-2H-benzo[1,4]thiazin-6-yl)-oxazolidin-5-yl]-propyl}-amino)-1,2-dihydro-pyrrolo[3,2,1-ij]quinolin-4-one] | ≤ 0.031 | 
5 | O=C1COc2ccc(N3C[C@@H](CCCN[C@@H]4Cn5c(=O)ccc6ncc(F)c4c65)OC3=O)cc2N1 [Example 146, (S)-3-fluoro-4-{3-[(R)-2-oxo-3-(3-oxo-3,4-dihydro-2H-benzo[1,4]oxazin-6-yl)-oxazolidin-5-yl]-propylamino}-4,5-dihydro-pyrrolo[3,2,1-de][1,5]naphthyridin-7-one] | ≤ 0.031 | 
6 | O=C1CSc2ccc(N3C[C@@H](CN(CCCO)CCC4Cn5c(=O)ccc6ccc(F)c4c65)OC3=O)cc2N1 (mixture of isomers) [Example 68, (RS)-9-fluoro-1-(2-{(3-hydroxy-propyl)-[(R)-2-oxo-3-(3-oxo-3,4-dihydro-2H-benzo[1,4]thiazin-6-yl)-oxazolidin-5-ylmethyl]-amino}-ethyl)-1,2-dihydro-pyrrolo[3,2,1-ij]quinolin-4-one] | ≤ 0.031 | 
7 | O=C1CSc2ccc(N3C[C@@H](CCN[C@H]4Cn5c(=O)ccc6cccc4c65)OC3=O)cc2N1 [Example 158, (R)-1-{2-[(R)-2-oxo-3-(3-oxo-3,4-dihydro-2H-benzo[1,4]thiazin-6-yl)-oxazolidin-5-yl]-ethylamino}-1,2-dihydro-pyrrolo[3,2,1-ij]quinolin-4-one] | ≤ 0.031 | 
8 | O=C1COc2ccc(N3C[C@H](CCNCC4CN5C(=O)CCc6ccc(F)c4c65)OC3=O)cc2N1 (mixture of isomers) [Example 187, (RS)-9-fluoro-1-({2-[(S)-2-oxo-3-(3-oxo-3,4-dihydro-2H-benzo[1,4]oxazin-6-yl)-oxazolidin-5-yl]-ethylamino}-methyl)-1,2,5,6-tetrahydro-pyrrolo[3,2,1-ij]quinolin-4-one] | ≤ 0.031 | 
9 | O=C1CSc2ccc(N3C[C@@H](CCCN[C@@H]4Cn5c(=O)ccc6ncc(F)c4c65)OC3=O)nc2N1 [Example 147, (S)-3-fluoro-4-{3-[(R)-2-oxo-3-(3-oxo-3,4-dihydro-2H-pyrido[3,2-b][1,4]thiazin-6-yl)-oxazolidin-5-yl]-propylamino}-4,5-dihydro-pyrrolo[3,2,1-de][1,5]naphthyridin-7-one] | ≤ 0.031 | 
10 | (1R,2R)-4-oxo-1-{3-[(S)-2-oxo-3-(3-oxo-3,4-dihydro-2H-benzo[1,4]thiazin-6-yl)-oxazolidin-5-yl]-propylamino}-1,2-dihydro-4H-pyrrolo[3,2,1-ij]quinoline-2-carboxylic acid methyl ester and (1S,2S)-4-oxo-1-{3-[(S)-2-oxo-3-(3-oxo-3,4-dihydro-2H-benzo[1,4]thiazin-6-yl)-oxazolidin-5-yl]-propylamino}-1,2-dihydro-4H-pyrrolo[3,2,1-ij]quinoline-2-carboxylic acid methyl ester [Example 162] |  | 0.25
11 | (1R,2R)-2-hydroxymethyl-1-{3-[(S)-2-oxo-3-(3-oxo-3,4-dihydro-2H-benzo[1,4]thiazin-6-yl)-oxazolidin-5-yl]-propylamino}-1,2-dihydro-pyrrolo[3,2,1-ij]quinolin-4-one and (1S,2S)-2-hydroxymethyl-1-{3-[(S)-2-oxo-3-(3-oxo-3,4-dihydro-2H-benzo[1,4]thiazin-6-yl)-oxazolidin-5-yl]-propylamino}-1,2-dihydro-pyrrolo[3,2,1-ij]quinolin-4-one [Example 164] |  | 0.031
12 | O=C1O[C@H](CCNC[C@@H]2Cn3c(=O)ccc4ccc(F)c2c43)CN1c1cc2c(cn1)OCCO2 (racemic) [Example 42, (RS)-1-({2-[(RS)-3-(2,3-dihydro-[1,4]dioxino[2,3-c]pyridin-7-yl)-2-oxo-oxazolidin-5-yl]-ethylamino}-methyl)-9-fluoro-1,2-dihydro-pyrrolo[3,2,1-ij]quinolin-4-one] | 2 (≈ 4.29 µM) | 
13 | CCCc1ccc(N2C[C@@H](CCNCC3Cn4c(=O)ccc5ccc(F)c3c54)OC2=O)cc1 (mixture of isomers) [Example 45, (RS)-9-fluoro-1-({2-[(R)-2-oxo-3-(4-propyl-phenyl)-oxazolidin-5-yl]-ethylamino}-methyl)-1,2-dihydro-pyrrolo[3,2,1-ij]quinolin-4-one] | 0.063 | 
14 | Cc1ccc2ccc(=O)n3c2c1C(NCCC[C@@H]1CN(c2ccc4c(c2)NC(=O)CS4)C(=O)O1)C3 (mixture of isomers) [Example 152, (RS)-9-methyl-1-{3-[(R)-2-oxo-3-(3-oxo-3,4-dihydro-2H-benzo[1,4]thiazin-6-yl)-oxazolidin-5-yl]-propylamino}-1,2-dihydro-pyrrolo[3,2,1-ij]quinolin-4-one] | ≤ 0.031 | 
15 | O=C1COc2ccc(N3C[C@H](CCCN[C@@H]4Cn5c(=O)ccc6ncc(F)c4c65)OC3=O)cc2N1 [Example 149, (S)-3-fluoro-4-{3-[(S)-2-oxo-3-(3-oxo-3,4-dihydro-2H-benzo[1,4]oxazin-6-yl)-oxazolidin-5-yl]-propylamino}-4,5-dihydro-pyrrolo[3,2,1-de][1,5]naphthyridin-7-one] | ≤ 0.031 | 
16 | O=C1CSc2ccc(N3C[C@@H](CCNCC4Cn5c(=O)ccc6nccc4c65)OC3=O)cc2N1 (mixture of isomers) [Example 34, (RS)-4-({2-[(R)-2-oxo-3-(3-oxo-3,4-dihydro-2H-benzo[1,4]thiazin-6-yl)-oxazolidin-5-yl]-ethylamino}-methyl)-4,5-dihydro-pyrrolo[3,2,1-de][1,5]naphthyridin-7-one] | ≤ 0.031 | 
17 | Cl.Cl.O=C1CSc2ccc(N3C[C@@H](CCCNC4CN5C(=O)CN(CCCO)c6ccc(F)c4c65)OC3=O)nc2N1 (mixture of isomers) [Example 202, (RS)-7-fluoro-6-{3-[(R)-2-oxo-3-(3-oxo-3,4-dihydro-2H-pyrido[3,2-b][1,4]thiazin-6-yl)-oxazolidin-5-yl]-propylamino}-1-(3-hydroxypropyl)-1,2,5,6-tetrahydro-pyrrolo[1,2,3-de]quinoxalin-3-one dihydrochloride] | 0.063 | 
18 | CCc1ccc2ccc(=O)n3c2c1C(NCCC[C@@H]1CN(c2ccc4c(c2)NC(=O)CS4)C(=O)O1)C3 (mixture of isomers) [Example 179, (RS)-9-ethyl-1-{3-[(R)-2-oxo-3-(3-oxo-3,4-dihydro-2H-benzo[1,4]thiazin-6-yl)-oxazolidin-5-yl]-propylamino}-1,2-dihydro-pyrrolo[3,2,1-ij]quinolin-4-one] | ≤ 0.031 | 
19 | O=C1COc2ccc(N3C[C@H](CCNCC4Cn5c(=O)ccc6ccc(F)c4c65)OC3=O)cc2N1 (mixture of isomers) [Example 1, (1RS)-9-fluoro-1-({2-[(S)-2-oxo-3-(3-oxo-3,4-dihydro-2H-benzo[1,4]oxazin-6-yl)-oxazolidin-5-yl]-ethylamino}-methyl)-1,2-dihydro-pyrrolo[3,2,1-ij]quinolin-4-one] | ≤ 0.031 | 
20 | O=C1CSc2ccc(N3C[C@H]([C@H](O)CCN[C@H]4Cn5c(=O)ccc6ccc(F)c4c65)OC3=O)cc2N1 (racemic) [Example 113, (1RS)-9-fluoro-1-{(3RS)-3-hydroxy-3-[(5RS)-2-oxo-3-(3-oxo-3,4-dihydro-2H-benzo[1,4]thiazin-6-yl)-oxazolidin-5-yl]-propylamino}-1,2-dihydro-pyrrolo[3,2,1-ij]quinolin-4-one] | ≤ 0.031 | 
21 | O=C1CSc2ccc(N3C[C@@H](CCCN[C@@H]4Cn5c(=O)ccc6nccc4c65)OC3=O)cc2N1 [Example 39, (S)-4-{3-[(R)-2-oxo-3-(3-oxo-3,4-dihydro-2H-benzo[1,4]thiazin-6-yl)-oxazolidin-5-yl]-propylamino}-4,5-dihydro-pyrrolo[3,2,1-de][1,5]naphthyridin-7-one] | ≤ 0.031 | 
22 | O=C1COc2ccc(N3C[C@@H](CCCNC4Cn5c(=O)ccc6ncc(F)c4c65)OC3=O)cc2N1 (mixture of isomers) [Example 95, (RS)-3-fluoro-4-{3-[(R)-2-oxo-3-(3-oxo-3,4-dihydro-2H-benzo[1,4]oxazin-6-yl)-oxazolidin-5-yl]-propylamino}-4,5-dihydro-pyrrolo[3,2,1-de][1,5]naphthyridin-7-one] | ≤ 0.031 | 
23 | O=C1COc2ccc(N3C[C@@H](CCCN[C@@H]4Cn5c(=O)cnc6ccc(F)c4c65)OC3=O)nc2N1 [Example 71, (S)-7-fluoro-6-{3-[(R)-2-oxo-3-(3-oxo-3,4-dihydro-2H-pyrido[3,2-b][1,4]oxazin-6-yl)-oxazolidin-5-yl]-propylamino}-5,6-dihydro-pyrrolo[1,2,3-de]quinoxalin-3-one] | ≤ 0.031 | 
